# According to patent publication US10035800B2 (AbbVie Inc., priority 2013, dated 2018):
# Assays:
# [1] = biological target: T1, BRD4 (BDI_K57-E168) (Homo sapiens, UniProt O60885); assay: TR-FRET bromodomain binding assay, first bromodomain of BRD4; conditions: TR-FRET assay protocol G (compound 0.92 μM-15 pM); 100 nM probe
# T1 construct: BD1: amino acids K57-E168; made in house
# Protocol: (§1) Bromodomain Domain Binding Assay
# (§2) A time-resolved fluorescence resonance energy transfer (TR-FRET) assay was used to determine the affinities of compounds of the Examples listed in Table 1 for each bromodomain of BRD4. His-tagged first (BD1: amino acids K57-E168) and second (BD2: amino acids […]) bromodomains of BRD4 were expressed and purified. An Alexa647-labeled BET-inhibitor was used as the fluorescent probe in the assay.
# (§3) Compound dilution series were prepared in DMSO via an approximately 3-fold serial dilution from one of the following: […]
# (§4) Assay method E: 0.47 mM to 7.8 nM […]
# (§5) Assay method G: 0.047 mM to 0.78 nM
# (§6) or 5-fold serial dilution from one of the following: […]
# (§7) Assay method B: 2.5 mM-797 nM […]
# (§8) For Assay methods B, E, and G: Compound dilutions were added directly into white, low-volume assay plates (Perkin Elmer Proxiplate 384 Plus#6008280) using a Labcyte Echo in conjunction with Labcyte Access and Thermo Multidrop CombinL robotics. Compounds were then suspended in eight microliters (μL) of assay buffer (20 mM Sodium Phosphate, pH 6.0, 50 mM NaCl, 1 mM Ethylenediaminetetraacetic acid disodium salt dihydrate, 0.01% Triton X-100, 1 mM DL-Dithiothreitol) containing His-tagged bromodomain, Europium-conjugated anti-His antibody (Invitrogen PV5596) and Alexa-647-conjugated probe.
# (§9) The final concentration of 1× assay mixture for assay methods A, B, C, D, E, F, and G contains 2% DMSO, 8 nM His-tagged bromodomain, 1 nM Europium-conjugated anti-His-tag antibody and 100 nM or 30 nM probe (for BDI or BDII, respectively) and compound concentration in the range of: 50 μM-16 nM for method A, 49.02 μM-15.63 nM for method B, 25 μM-423 pM for method C, 10 μM-169 pM for method D, 9.19 μM-150 pM for method E, 5 μM-85 pM for method F, and 0.92 μM-15 pM for method G.
# (§10) After a one-hour equilibration at room temperature, TR-FRET ratios were determined using an Envision multilabel plate reader (Ex 340, Em 495/520).
# (§11) TR-FRET data were normalized to the means of 24 no-compound controls (“high”) and 8 controls containing 1 μM un-labeled probe (“low”). Percent inhibition was plotted as a function of compound concentration and the data were fit with the 4 parameter logistic equation to obtain IC50s. Inhibition constants (Ki) were calculated from the IC50s, probe Kd and probe concentration. Typical Z′ values were between 0.65 and 0.75. The minimum significant ratio was determined to evaluate assay reproducibility (Eastwood et al., (2006) J Biomol Screen, 11: 253-261). The MSR was determined to be 2.03 for BDI and 1.93 for BDII, and a moving MSR (last six run MSR overtime) for both BDI and BDII was typically <3.
# [2] = biological target: T2, BRD4 (BDII_E352-M457) (Homo sapiens, UniProt O60885); assay: TR-FRET bromodomain binding assay, second bromodomain of BRD4; conditions: TR-FRET assay protocol G (compound 0.92 μM-15 pM); 30 nM probe
# T2 construct: protocol; made in house
# Protocol: as §1, §2, §3, §4, §5, §6, §7, §8, §9, §10, §11
Compound,Ki [1],Ki [2]
"Cc1ccc(S(=O)(=O)N2Cc3c[nH]c4c(=O)n(C)cc(c34)-c3cc(CS(C)(=O)=O)ccc32)cc1 [Example 74, 10-methyl-7-((methylsulfonyl)methyl)-4-tosyl-3,4-dihydro-1H-1,4,10-triazadibenzo[cd,f]azulen-11(10H)-one]",> 238 nM,369 nM
"CC1OCCC1N1Cc2c[nH]c3c(=O)n(C)cc(c23)-c2cc(CS(C)(=O)=O)ccc21 (stereo not shown) [Example 180, 10-methyl-7-((methylsulfonyl)methyl)-4-(2-methyltetrahydrofuran-3-yl)-3,4-dihydro-1H-1,4,10-triazadibenzo[cd,f]azulen-11(10H)-one]",1.51 nM,2.7 nM
"Cn1cc2c3c(c[nH]c3c1=O)C(C(=O)NCCC#N)N(c1ccc(F)cc1F)c1ccc(CS(C)(=O)=O)cc1-2 (racemic) [Example 154, N-(2-cyanoethyl)-4-(2,4-difluorophenyl)-10-methyl-7-((methylsulfonyl)methyl)-11-oxo-3,4,10,11-tetrahydro-1H-1,4,10-triazadibenzo[cd,f]azulene-3-carboxamide]",50.7 nM,53.1 nM
"COc1ccc(OC(=O)N2Cc3c[nH]c4c(=O)n(C)cc(c34)-c3cc(CS(C)(=O)=O)ccc32)cc1 [Example 97, 4-methoxyphenyl 10-methyl-7-((methylsulfonyl)methyl)-11-oxo-10,11-dihydro-1H-1,4,10-triazadibenzo[cd,f]azulene-4(3H)-carboxylate]",3.21 nM,1.35 nM
"CC(C1CCOCC1)N1Cc2c[nH]c3c(=O)n(C)cc(c23)-c2cc(CS(C)(=O)=O)ccc21 (racemic) [Example 188, 10-methyl-7-((methylsulfonyl)methyl)-4-(1-(tetrahydro-2H-pyran-4-yl)ethyl)-3,4-dihydro-1H-1,4,10-triazadibenzo[cd,f]azulen-11(10H)-one]",3.64 nM,4.62 nM
"7-fluoro-10-methyl-3,4-dihydro-1H-1,4,5,10-tetraazadibenzo[cd,f]azulen-11(10H)-one [Example 38]",> 238 nM,> 408 nM
"COc1ccccc1S(=O)(=O)N1Cc2c[nH]c3c(=O)n(C)cc(c23)-c2cc(CS(C)(=O)=O)ccc21 [Example 78, 4-((2-methoxyphenyl)sulfonyl)-10-methyl-7-((methylsulfonyl)methyl)-3,4-dihydro-1H-1,4,10-triazadibenzo[cd,f]azulen-11(10H)-one]",216 nM,126 nM
"N-(2-chloroethyl)-10-methyl-7-((methylsulfonyl)methyl)-11-oxo-10,11-dihydro-1H-1,4,10-triazadibenzo[cd,f]azulene-4(3H)-carboxamide [Example 66]",> 238 nM,> 408 nM
"4-([1,1′-biphenyl]−4-ylsulfonyl)-10-methyl-7-((methylsulfonyl)methyl)-3,4-dihydro-1H-1,4,10-triazadibenzo[cd,f]azulen-11(10H)-one [Example 75]",> 238 nM,> 408 nM
"Cn1cc2c3c(c[nH]c3c1=O)CN(C(=O)NCC1CCCCC1)c1ccc(CS(C)(=O)=O)cc1-2 [Example 67, N-(cyclohexylmethyl)-10-methyl-7-((methylsulfonyl)methyl)-11-oxo-10,11-dihydro-1H-1,4,10-triazadibenzo[cd,f]azulene-4(3H)-carboxamide]",> 238 nM,> 408 nM
"Cn1cc2c3c(c[nH]c3c1=O)C(C(=O)NCC(C)(C)O)N(c1ccc(F)cc1F)c1ccc(CS(C)(=O)=O)cc1-2 (stereo not shown) [Example 165, 4-(2,4-difluorophenyl)-N-(2-hydroxy-2-methylpropyl)-10-methyl-7-((methylsulfonyl)methyl)-11-oxo-3,4,10,11-tetrahydro-1H-1,4,10-triazadibenzo[cd,f]azulene-3-carboxamide]",81.4 nM,79.6 nM
"N-(3-methoxypropyl)-10-methyl-7-((methylsulfonyl)methyl)-11-oxo-10,11-dihydro-1H-1,4,10-triazadibenzo[cd,f]azulene-4(3H)-carboxamide [Example 73]",16.5 nM,19.4 nM
"Cn1cc2c3c(c[nH]c3c1=O)CN(C(=O)CCc1ccccc1)c1ccc(CS(C)(=O)=O)cc1-2 [Example 116, 10-methyl-7-((methylsulfonyl)methyl)-4-(3-phenylpropanoyl)-3,4-dihydro-1H-1,4,10-triazadibenzo[cd,f]azulen-11(10H)-one]",16 nM,11.2 nM
"COCCOC(=O)N1Cc2c[nH]c3c(=O)n(C)cc(c23)-c2cc(CS(C)(=O)=O)ccc21 [Example 86, 2-methoxyethyl 10-methyl-7-((methylsulfonyl)methyl)-11-oxo-10,11-dihydro-1H-1,4,10-triazadibenzo[cd,f]azulene-4(3H)-carboxylate]",10.3 nM,13.9 nM
"Cn1cc(-c2[nH]c3c(=O)n(C)cc4c3c2CN(c2ccccn2)c2ccc(CS(C)(=O)=O)cc2-4)cn1 [Example 273, 10-methyl-2-(1-methyl-1H-pyrazol-4-yl)-7-((methylsulfonyl)methyl)-4-(pyridin-2-yl)-3,4-dihydro-1H-1,4,10-triazadibenzo[cd,f]azulen-11(10H)-one]",1.12 nM,0.88 nM
"CCOC(=O)C1CCC(CNC(=O)N2Cc3c[nH]c4c(=O)n(C)cc(c34)-c3cc(CS(C)(=O)=O)ccc32)CC1 (stereo not shown) [Example 72, ethyl 4-((10-methyl-7-((methylsulfonyl)methyl)-11-oxo-3,4,10,11-tetrahydro-1H-1,4,10-triazadibenzo[cd,f]azulene-4-carboxamido)methyl)cyclohexanecarboxylate]",26.2 nM,37 nM
"COC(=O)CCC1c2c[nH]c3c(=O)n(C)cc(c23)-c2cc(CS(C)(=O)=O)ccc2N1c1ccc(F)cc1F [Example 268, (R)-methyl 3-(4-(2,4-difluorophenyl)-10-methyl-7-((methylsulfonyl)methyl)-11-oxo-3,4,10,11-tetrahydro-1H-1,4,10-triazadibenzo[cd,f]azulen-3-yl)propanoate]",82.8 nM,16.4 nM
"Cn1cc2c3c(c[nH]c3c1=O)C(C(=O)NC1(C)CC1)N(c1ccc(F)cc1F)c1ccc(CS(C)(=O)=O)cc1-2 (racemic) [Example 167, 4-(2,4-difluorophenyl)-10-methyl-N-(1-methylcyclopropyl)-7-((methylsulfonyl)methyl)-11-oxo-3,4,10,11-tetrahydro-1H-1,4,10-triazadibenzo[cd,f]azulene-3-carboxamide]",69.2 nM,76.3 nM
"Cn1cc2c3c(c[nH]c3c1=O)CN(C(=O)c1ccc(F)cc1F)c1ccc(CS(C)(=O)=O)cc1-2 [Example 112, 4-(2,4-difluorobenzoyl)-10-methyl-7-((methylsulfonyl)methyl)-3,4-dihydro-1H-1,4,10-triazadibenzo[cd,f]azulen-11(10H)-one]",53.2 nM,15.2 nM
"COc1ccc(S(=O)(=O)N2Cc3c[nH]c4c(=O)n(C)cc(c34)-c3cc(CS(C)(=O)=O)ccc32)cc1 [Example 76, 4-((4-methoxyphenyl)sulfonyl)-10-methyl-7-((methylsulfonyl)methyl)-3,4-dihydro-1H-1,4,10-triazadibenzo[cd,f]azulen-11(10H)-one]",> 238 nM,> 408 nM
"CC(C1CCOC1=O)N1Cc2c[nH]c3c(=O)n(C)cc(c23)-c2cc(CS(C)(=O)=O)ccc21 (stereo not shown) [Example 184, 10-methyl-7-((methylsulfonyl)methyl)-4-(1-(2-oxotetrahydrofuran-3-yl)ethyl)-3,4-dihydro-1H-1,4,10-triazadibenzo[cd,f]azulen-11(10H)-one]",4.34 nM,6.82 nM
"Cn1cc2c3c(c[nH]c3c1=O)CN(C(=O)c1ccccc1F)c1ccc(CS(C)(=O)=O)cc1-2 [Example 113, 4-(2-fluorobenzoyl)-10-methyl-7-((methylsulfonyl)methyl)-3,4-dihydro-1H-1,4,10-triazadibenzo[cd,f]azulen-11(10H)-one]",85.6 nM,10.9 nM
CN1CCCC(N2Cc3c[nH]c4c(=O)n(C)cc(c34)-c3cc(CS(C)(=O)=O)ccc32)CC1 (stereo not shown) [Example 189],5.82 nM,22.3 nM
